From patent US20260159546A1, “PHARMACEUTICAL COMPOSITION FOR TREATING SEPSIS INCLUDING DUAL ALARMIN-RECEPTOR-SPECIFIC TARGETING PEPTIDE” (Industry-University Cooperation Foundation Hanyang …, priority 2024, published 2026) come the findings set out here.

Read-outs that look alike come from different tables or passages of the source. Ends that are not written are not given here.

Type in all cases: cell-based, mouse
Series [1] has as its system BMDMs. The series is described as follows: In vitro cell viability study (Quanti-Max) on BMDMs. As for the experimental part:
Primary bone marrow-derived macrophages (BMDMs) were isolated from female C57BL/6 mice and cultured for five to seven days in a medium supplemented with macrophage-colony stimulating factor (M-CSF) for differentiation. HEK293T cells were acquired from the American Type Culture Collection (ATCC). Both BMDMs and HEK293T cells were cultured in Dulbecco's modified Eagle's medium (DMEM, GenDEPOT Inc., USA) supplemented with 10% fetal bovine serum (FBS), penicillin (100 U/mL), and streptomycin (100 μg/mL).
BMDMs were plated on 96-well plates (SPL Life Science Co. Ltd., Republic of Korea) at a density of 2×10^4 cells/well and incubated in complete DMEM for 18 h. Thereafter, the cells were treated with various concentrations of H-T, H-R, P-T, P-M peptides, control, TMR, or TMR using Abs Lipo. After 48 h of incubation, the medium was replaced with 100 μl of DMEM and the Quanti-Max solution (10% of each media volume). After two hours of incubation at 37° C. and 5% CO2, the absorbance of the plates including the Quanti-Max solution was measured at 450 nm using the MMR SPARK® microplate reader (TECAN Group Ltd., Switzerland).

For series [2], the system named is LPS-induced cytokine production in BMDMs. Description: Cytokine ELISA in supernatant of LPS-treated BMDMs. The note with it: LPS 100 ng/mL, 18 h. The source says: FIG. 2. Preparation of TLR4/MD2/RAGE-interacting motifs of HMGB1 or PTX3; • (A and B) Schematic diagram of HMGB1 (A) and PTX3 (B) domains. Glutathione s-transferase (GST)-tagged truncates including the TLR4-, RAGE-, or MD2-binding domains of HMGB1 or PTX3 were constructed. […] HEK293T cells transfected with the GST-tagged constructs in combination with HA-TLR4, Myc-RAGE or His-MD2 were confirmed by GST-pulldown. Western blots of WCLs and eluates after GST-pulldown are shown, using glyceraldehyde 3-phosphate dehydrogenase (GAPDH) as a loading control in WCLs. Based on the pulldown binding results, TLR4-, MD2-, and RAGE-targeted peptides were constructed and prepared as an H-T, H-R, P-T, or P-M peptide (indicated in panels A and B); • (C) BMDMs were incubated with the H-T, H-R, P-T, or P-M peptide at the indicated concentrations for 48 h, and then cell viability was measured by a cell viability assay. […] They were immunoprecipitated with αFlag for two hours, separated by sodium dodecyl sulfate-polyacrylamide gel electrophoresis (SDS-PAGE), and evaluated by immunoblotting; • (E) Competition between rHMGB1 (top) or PTX3 (bottom) and the constructed peptides for their respective receptors. […] TNF-α, IL-6, IL-12p40, and IL-10 levels in the supernatant of the indicated peptide-treated BMDMs, along with LPS (100 ng/mL, 18 h), were determined by ELISA. […]

In series [3] the test system is BMDMs. The series is described as follows: Cytokine ELISA in BMDMs stimulated with recombinant alarmins. The note with it: BMDMs treated with recombinant alarmin 2, 5 μg/mL. The source says: FIG. 1. Interaction of extracellular high-mobility group protein B1 (HMGB1) and (pentraxin 3) PTX3 with toll-like receptor 4 (TLR4) or receptor for advanced glycation end products (RAGE) in murine macrophages; • (A and B) Release of HMGB1 (A) or PTX3 (B) from murine macrophages after stimulation with lipopolysaccharide (LPS). LPS-induced HMGB1 (A) or PTX3 (B) release from murine macrophages. Immunoblots (IB) for HMGB1 and PTX3 in the cell lysates in LPS-treated bone marrow-derived macrophages (BMDMs) and the supernatant at indicated time points after LPS (100 ng/ml); • (C and D) Interaction between HMGB1 (C) or PTX3 (D) with receptors thereof. HEK293T cells were transfected with constructs, and cell lysates were immunoprecipitated with a Flag-tag-specific antibody and analyzed by immunoblotting (IB) with the indicated antibodies. […] Immunoprecipitants and whole cel lysates (WCL) were analyzed by immunoblotting with the indicated antibodies; • (E) TNF-α, IL-6, IL-12p40, and IL-10 levels in the supernatant of LPS (100 ng/ml, 18 h) or recombinant alarmins (rHMGB1 or rPTX3, each (2, 5 μg/mL))-treated BMDMs determined by enzyme-linked immunosorbent assay (ELISA). The data shown represents at least three independent experiments (n≥3), and bars denote mean±SEM (****p<0.001), and significance was measured by two-way analysis of variance (ANOVA); […]

Where [4] appears, read: BMDMs, 48 h incubation, various concentrations.

As for AAYRAKGKPD [H-R], the “viability of BMDMs” value in the series on BMDMs [1] (setting [4]) was “almost no impact”.

Turning to ALAAVLEELR [P-M], in the series with BMDMs [1] (setting [4]), the “viability of BMDMs” value is on record as “almost no impact”.

Regarding FKDPNAPKRP [H-T], the “viability of BMDMs” value in the series on BMDMs [1] was “almost no impact”.

On to PAEARLTSAL [P-T], for which the “viability of BMDMs” value with BMDMs [1] (setting [4]) is on record as “almost no impact”.

In the case of “TMR peptide: fusion peptide of SEQ ID NO: 2 to 5 joined by GG linkers, FKDPNAPKRPGGAAYRAKGKPDGGPAEARLTSALGGALAAVLEELR”, the “production of inflammatory cytokines (TNF-α, IL-6, IL-12p40)” value in series [2] is recorded as “significantly reduced”.

With “rPTX3: recombinant alarmin protein pentraxin 3 [reference compound]”, the “levels of TNF-α, IL-6, IL-12p40 and IL-10” value in the series on BMDMs [3] is “elevated levels”.

B1: rHMGB1: recombinant alarmin protein high-mobility group protein B1 (protein, UniProt P09429 1-215, looked up)
High mobility group protein B1: MGKGDPKKPRGKMSSYAFFVQTCREEHKKKHPDASVNFSEFSKKCSERWKTMSAKEKGKFEDMAKADKARYEREMKTYIPPKGETKKKFKDPNAPKRPPSAFFLFCSEYRPKIKGEHPGLSIGDVAKKLGEMWNNTAADDKQPYEKKAAKLKEKYEKDIAAYRAKGKPDAAKKGVVKAEKSKKKKEEEEDEEDEEDEEEEEDEEDEDEEEDDDDE
modifications: Flag tag
B1: the “levels of TNF-α, IL-6, IL-12p40 and IL-10” value with BMDMs [3] was “elevated levels”.
